This is an account of results in patent US11905537B2, “Bifunction chemical epigenetic modifiers and methods of use” (The University of North Carolina at Chapel Hill, priority 2017, dated 2024).

Holding throughout (type): cell-based, human
One data set deals with CXCR4. Description: Endogenous CXCR4 activation in HEK 293T cells, qRT-PCR. To be noted: 48 hours. An excerpt: (§1) Next, the plasmid-optimized dCas9-CEMa system was adapted to target endogenous mammalian genes. Because an endogenous gene was being targeted rather than hundreds of transiently expressing reporter plasmids, the dCas9 machinery (dCas9-p300, dCas9-FKBPx2 and/or MCP-FKBP) was chosen to transfect HEK 293T cells. After the cells were stably selected for integration of the dCas9- and MCP-expressing plasmids, the gRNAs that were designed to target endogenous genes were transfected. To determine the time point at which to observe more efficient dCas9 regulation by this method, cells expressing dCas9-p300 were transfected with gRNAs for myogenic differentiation (MYOD1), the RNA was extracted and qRT-PCR was performed after 24, 48 and 72 hours post transfection. […]
(§2) RNA extraction: For FIGS. 23 and 26, cells from the 6-well plates were isolated. […] RNA extraction was performed with an RNeasy Plus Mini Kit (Qiagen, 74134) and the relative enrichment of mRNA was quantified with the RNA-to-CTr 1-step kit (Thermo Fisher Scientific, 4389986). […]

Another data set relates to MYOD1. Description: Endogenous MYOD1 activation in HEK 293T cells, qRT-PCR. The following applies: 200 nM, 48 hours.
Source text: as §1, §2

The test system of data set [1] is BFP reporter gene downstream of a tre3g promoter. Put plainly: BFP reporter activation in HEK 293T cells with dCas9 systems, flow cytometry. The source says: To test for changes in gene expression, human embryonic kidney (HEK) 293T cells were transfected with a BFP reporter gene downstream of a tre3g promoter and performed flow cytometry on at least 100,000 cells after co-expressing the gRNA and dCas9 machinery(Ma, D. et al. Nat. Commun. 7, 13056 (2016)). As a benchmark control for gene activation, a dCas9-p300 fusion protein known to increase expression was used (Hilton, I. B. et al., Nat. Biotechnol. 33, 510-517 (2015)). Using a gRNA that targets the tre3g promoter at six interspaced sites, the dCas9-p300 increased BFP expression 14-fold compared to the non-targeting (NT) control gRNA (FIG. 21A, p<0.05). Next, activating the reporter gene with a plasmid expressing dCas9 (N-terminus)-FKBPx2 (C-terminus) was tested using three predicted activating bifunctional CEMs.
Cell culture: Low passage (p30-40) HEK 293T cells were cultured with high-glucose DMEM (Corning, 10-013-CV) supplemented with 10% FBS serum (Atlantic Biologicals, S11550), 10 mM HEPES (Corning, 25-060-Cl), NEAA (Gibco, 11140-050), Pen/Strep, and 55 μM 2-Mercaptoethanol. Cells were passaged every 2-5 days and maintained at 10-90% confluency in an incubator at 37° C. and 5% CO2.
Cell Transfection: For FIG. 21, HEK 293T cells were split into 12-well plates with 100,000 cells per well. The next day, PEI (polyethlenimine, Polysciences #23966-1) transfection was done with 1 μg of DNA, 3 μL of PEI, and 100 μL of Optimem (Gibco, 31985070). For FIGS. 21A, 21B, 22, and 23 we transfected with 0.1 μg BFP reporter; 0.7 μg dCas9-X; 0.2 μg gRNA. For FIG. 19C, FIG. 19D, FIG. 24, and FIG. 24 we transfected with 0.1 μg BFP reporter; 0.5 μg dCas9-X; 0.2 μg scFv-FKBP or ms2-FKBP; 0.2 μg gRNA. Media was change 16 hours after transfection with fresh media, with or without bifunctional CEMa addition. After 48 hours of bifunctional CEMa exposure, cells were isolated for flow cytometry analysis. For FIG. 23, HEK 293T cells were split into 6-well plates with 200,000 cells per well. The next day, PIE transfection was done with 3 μg of DNA, 9 μL of PEI, and 200 μL of Optimem. For FIGS. 23A-C and 26, 3 μg of gRNA was added in equal ratio (if applicable). Media was change 16 hours after transfection with fresh media, with or without bifunctional CEMa addition. After 48 hours of bifunctional CEMa exposure, cells were isolate for RNA extraction.
Flow cytometry: Flow cytometry was performed with the Attune Nxt as previously described (Chiarella, A. M. et al. Biochemistry 57, 2756-2761 (2018)). The data presented represents three separate transfections and significance was determined with the student's t-test.
(In flow cytometry, cells or beads pass a laser one at a time.)

The subject of a further data set is ASCL1. Put plainly: Endogenous ASCL1 activation in HEK 293T cells, qRT-PCR. The following applies: 48 hours.
Source text: as §1, §2
For orientation: Real-time PCR tracks product formation cycle by cycle.

In the next data set the test system is HEK 293T cells. Description: Cell health by cell density and morphology in the dose curve. The following applies: concentrations of 500 nM and above, data not shown. The protocol: The dCas9 “SunTag” system was adapted to be compatible with the bifunctional CEMa technology(Tanenbaum, M. E. et al. Cell 159, 635-646 (2014); (Chavez, A. et al. Nat. Methods 13, 563-567 (2016)). Using the improved dCas9-CEMa system (dCas9-FKBPx2, ms2-FKBP, tre3g ×6 gRNA, BFP reporter), the effects of a global epigenetic inhibitor in combination with a gene-specific approach was tested. After the cells were transfected, they were treated with 200 nM of CEM87 and 2.5 μM of Entinostat. BFP expression increased 34-fold compared to unreated cells as measured by flow cytometry. More specifically, A dCas9-SunTagx10 plasmid was used that expresses an array of 10 yeast-specific GCN4 (gene control protein 4) peptides from the C-terminus of the dCas9, and co-transfected with a single chain variable fragment (scFv), (made to be GCN4-specific) fused to FKBP. Theoretically, as many as 10 FKBP molecules per dCas9 would be recruited to the gene of interest, increasing the bifunctional CEMa recruitment power. With the adapted SunTag method and the tre3g ×6 gRNA, 48 hours of 200 nM CEM87 exposure increased expression 16-fold compared to untreated cells (FIG. 24, p<0.001). […] With the improved dCas9 system and the most efficient bifunctional CEMa, CEM87, a dose-curve was performed and the ideal concentration for maximum expression was determined to be 200 nM (FIG. 21D). […]

[2] abbreviates: dCas9-FKBPx2 (FIG. 21B legend: dCas9-FKBPx1), 200 nM, 48 hours, vs untreated cells.
Where [3] appears, read: dCas9-SunTagx10 with scFv-FKBP, tre3g ×6 gRNA, 200 nM, 48 hours, vs untreated.

Each structure is given as a SMILES string. Several values for one entry are separate records, joined by “and”; a condition that tells them apart may be missing. Equal values may be shown once.

As for `COc1ccc2c(c1)C(c1ccc(Cl)cc1)=N[C@@H](CC(=O)NCc1cn(CCOCCOCCOCCNC(=O)CCSCCC[C@@H]3/C=C(\C)C[C@H](C)C[C@H](OC)[C@H]4O[C@@](O)(C(=O)C(=O)N5CCCC[C@H]5C(=O)O[C@H](/C(C)=C/[C@@H]5CC[C@@H](O)[C@H](OC)C5)[C@H](C)[C@@H](O)CC3=O)[C@H](C)C[C@@H]4OC)nn1)c1nnc(C)n1-2` [CEM87], in the data set on CXCR4 (NT gRNA control cells), the “change in CXCR4 expression with NT gRNA” value is given as “less than 2 fold”. The “increase in CXCR4 expression” value in the data set on CXCR4 (dCas9-FKBPx2 and ms2-FKBP, CXCR4 gRNAs, vs untreated) is 10 fold. Further, the “MYOD1 expression change with NT gRNAs” value with MYOD1 (NT gRNA control cells) is “no significant changes in expression”. For the same compound, the “increase in MYOD1 mRNA levels” value in the data set with MYOD1 (dCas9-FKBPx2 and ms2-FKBP, MYOD1 gRNAs, vs untreated, normalized to Gapdh) is on record as 13 fold. Besides, the “increase in BFP expression in combination with HDACi” value in data set [1] (200 nM CEM87 plus 2.5 μM entinostat, dCas9-FKBPx2, ms2-FKBP, vs untreated cells) amounted to 34 fold. Moreover, the “increase in BFP expression” value in data set [1] (setting [2]) is 7.5 fold and ~7 fold; in data set [1] (dCas9-FKBPx2, 6×-tre3g gRNA, 200 nM, 48 hours, vs untreated) it was 5 fold; in data set [1] (dCas9-FKBPx2, ms2-FKBP, tre3g ×6 gRNA, 200 nM, vs untreated cells), 18 fold; in data set [1] (dCas9-FKBPx2, single site gRNA in gene body, 200 nM, 48 hours, vs untreated), 2 fold; in data set [1] (setting [3]), 16 fold. Besides, the “activation of BFP expression” value was 4 fold in data set [1] (dCas9-FKBPx2, multiplex gRNA, 200 nM, 48 hours, vs untreated); 2 fold in data set [1] (dose curve, 10 nM, dCas9-FKBPx2, ms2-FKBP); 8 fold in data set [1] (dose curve, 50 nM, dCas9-FKBPx2, ms2-FKBP). Moreover, in data set [1] (dCas9-HA (no FKBP recruitment site), 6×-tre3g gRNA, 200 nM, 48 hours), the “effect on BFP expression with dCas9-HA” value is given as “did not significantly affect the BFP expression”. In addition, in data set [1] (dose curve, dCas9-FKBPx2, ms2-FKBP), the “ideal concentration for maximum expression” value is listed as 200 nM. For the same compound, in the data set on ASCL1 (NT gRNA samples), the “increase in ASCL1 in NT samples” value is on record as “less than 4 fold”. In addition, the “increase in ASCL1 mRNA levels” value with ASCL1 (dCas9-FKBPx2 and ms2-FKBP, ASCL1 gRNAs, vs untreated) is on record as 22 fold. In addition, the “cell health (cell density and morphology)” value with HEK 293T cells is recorded as “appeared less healthy”.

Regarding `CO[C@H]1C[C@@H](C)C/C(C)=C/[C@@H](CCCSCCC(=O)NCCOCCOCCOCCn2cc(COc3ccc(CCc4nc5cc(-c6c(C)noc6C)ccc5n4CCN4CCOCC4)cc3F)nn2)C(=O)C[C@H](O)[C@@H](C)[C@@H](/C(C)=C/[C@@H]2CC[C@@H](O)[C@H](OC)C2)OC(=O)[C@@H]2CCCCN2C(=O)C(=O)[C@]2(O)O[C@H]1[C@@H](OC)C[C@H]2C` [CEM114], the “increase in BFP expression” value in data set [1] (setting [2]) was 1.6 fold; in data set [1] (dCas9-FKBPx2, ms2-FKBP, tre3g ×6 gRNA, equivalent concentration, vs cells expressing NT gRNA), 6 fold; in data set [1] (setting [3]), 2 fold.
